# Legend:
# Assay type in all cases: cell-based
# Mucor circinelloides [1] = test: MIC broth microdilution (CLSI); conditions: Mucor circinelloides 80-14-240-5007
# Experimental: (§1) Antifungal susceptibility was determined by broth microdilution according to the CLSI guidelines described in M27-Ed4 ([16]).
# Rhizopus oryzae = test: MIC broth microdilution (CLSI); conditions: Rhizopus oryzae 04-14-364-1703
# Experimental: as §1
# Cryptococcus gattii [2] = test: MIC broth microdilution (CLSI); conditions: Cryptococcus gattii PNG27
# Experimental: as §1
# Lomentospora prolificans = test: MIC broth microdilution (CLSI); conditions: Lomentospora prolificans 80-16-101-2445
# Experimental: as §1
# Scedosporium apiospermum [3] = test: MIC broth microdilution (CLSI); conditions: Scedosporium apiospermum 04-16-022-2268
# Experimental: as §1
# Candida auris [4] = test: MIC broth microdilution (CLSI); conditions: Candida auris CDC-0384
# Experimental: as §1
# Candida parapsilosis [5] = test: MIC broth microdilution (CLSI); conditions: Candida parapsilosis ATCC 22018
# Experimental: Antifungal susceptibility was determined by broth microdilution according to the CLSI guidelines described in M27-Ed4 ([16]). […] MFC was determined by back-plating drug-treated cultures from MIC broths onto SDA plates. The MFC was defined as the lowest concentration from which no colonies could be cultured.
# Candida tropicalis = test: MIC broth microdilution (CLSI); conditions: Candida tropicalis M230640
# Experimental: as §1
# Candida dubliniensis = test: MIC broth microdilution (CLSI); conditions: Candida dubliniensis M230642
# Experimental: as §1
# Aspergillus niger [6] = test: MIC broth microdilution (CLSI); conditions: Aspergillus niger 111
# Experimental: as §1
# Aspergillus udagawae = test: MIC broth microdilution (CLSI); conditions: Aspergillus udagawae 8G81
# Experimental: as §1
# Aspergillus parafelis = test: MIC broth microdilution (CLSI); conditions: Aspergillus parafelis DTO 341-F2
# Experimental: as §1
# [7] = test system: Aspergillus frankstonensis; test: MIC broth microdilution (CLSI); conditions: Aspergillus frankstonensis DTO 341-F3
# Experimental: as §1
# Nannizzia nana = test: MIC broth microdilution (CLSI); conditions: Nannizzia nana R-133
# Experimental: as §1
# Mucor circinelloides [8] = test: checkerboard drug interaction (FICI, MICc);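 also: simplified diagonal checkerboard screen pairing antifungals with FPPS inhibitors, FICI calculated under the Loewe additivity model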
# Experimental: (§2) Drug interactions between antifungals and FPPS inhibitors were investigated using a simplified checkerboard diagonal screening method ([45]). […] FICIs were determined according to the Loewe additivity model ([17]).
# Cryptococcus gattii [9] = test: checkerboard drug interaction (FICI, MICc);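 also: simplified diagonal checkerboard screen pairing antifungals with FPPS inhibitors, FICI computed under the Loewe additivity model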
# Experimental: as §2
# Cryptococcus tetragattii = test: checkerboard drug interaction (FICI, MICc);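 also: simplified diagonal checkerboard screen pairing antifungals with FPPS inhibitors, with FICI calculated under the Loewe additivity model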
# Experimental: as §2
# Fusarium oxysporum = test: checkerboard drug interaction (FICI, MICc);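 also: simplified diagonal checkerboard screen pairing antifungals with FPPS inhibitors, FICI calculated under the Loewe additivity model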
# Experimental: as §2
# Fusarium solani = test: checkerboard drug interaction (FICI, MICc);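 also: simplified diagonal checkerboard screen pairing antifungals with FPPS inhibitors, FICI derived under the Loewe additivity model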
# Experimental: as §2
# Scedosporium apiospermum [10] = test: checkerboard drug interaction (FICI, MICc);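 also: simplified diagonal checkerboard screen of antifungal plus FPPS inhibitor pairs, with FICI computed under the Loewe additivity model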
# Experimental: as §2
# Candida auris [11] = test: checkerboard drug interaction (FICI, MICc);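 also: simplified diagonal checkerboard screen pairing antifungals with FPPS inhibitors, with FICI computed under the Loewe additivity model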
# Experimental: as §2
# Candida parapsilosis [12] = test: checkerboard drug interaction (FICI, MICc);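 also: simplified diagonal checkerboard screen pairing antifungals with FPPS inhibitors, with FICI computed under the Loewe additivity model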
# Experimental: as §2
# Aspergillus niger [13] = test: checkerboard drug interaction (FICI, MICc);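 also: simplified diagonal checkerboard screen pairing antifungals with FPPS inhibitors, FICI calculated under the Loewe additivity model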
# Experimental: as §2
# Aspergillus lentulus = test: checkerboard drug interaction (FICI, MICc);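 also: simplified diagonal checkerboard screen pairing antifungals with FPPS inhibitors, with the interaction index calculated under the Loewe additivity model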
# Experimental: as §2
smiles,measurement,setting,value
"CCCCCCCCCCn1cc[n+](CC(O)(P(=O)(O)O)P(=O)(O)O)c1 [10-ZOL, Decyl-zoledronate]",MIC / MEC,Mucor circinelloides [1],1 µg/mL
same,MIC / MEC,Rhizopus oryzae,4 µg/mL
same,MIC / MEC,Cryptococcus gattii [2],0.5 µg/mL
same,MIC / MEC,Lomentospora prolificans,2 µg/mL
same,MIC / MEC,Scedosporium apiospermum [3],4 µg/mL
same,MIC / MEC,Candida auris [4],2 µg/mL
same,MIC / MEC,Candida parapsilosis [5],1 µg/mL
same,MIC / MEC,Candida tropicalis,2 µg/mL
same,MIC / MEC,Candida dubliniensis,1 µg/mL
same,MIC / MEC,Aspergillus niger [6],4 µg/mL
same,MIC / MEC,Aspergillus udagawae,1 µg/mL
same,MIC / MEC,Aspergillus parafelis,4 µg/mL
same,MIC / MEC,[7],1 µg/mL
same,MIC / MEC,Nannizzia nana,1 µg/mL
same,FICI,Mucor circinelloides [8]; 5FC:10-ZOL,≥4
same,FICI,Mucor circinelloides [8]; AMB:10-ZOL,2
same,FICI,Mucor circinelloides [8]; CAS:10-ZOL,≥4
same,FICI,Mucor circinelloides [8]; ITR:10-ZOL,1.5
same,bisphosphonate MICc,Mucor circinelloides [8]; with 5FC,1
same,bisphosphonate MICc,Mucor circinelloides [8]; with AMB,1
same,bisphosphonate MICc,Mucor circinelloides [8]; with CAS,0.5
same,bisphosphonate MICc,Mucor circinelloides [8]; with FLC,1
same,bisphosphonate MICc,Mucor circinelloides [8]; with ITR,1
same,bisphosphonate MICc,Mucor circinelloides [8]; with KET,0.125
same,bisphosphonate MICc,Mucor circinelloides [8]; with VOR,0.125
same,FICI,Cryptococcus gattii [9]; 5FC:10-ZOL,1
same,FICI,Cryptococcus gattii [9]; CAS:10-ZOL,0.5
same,FICI,Cryptococcus gattii [9]; FLC:10-ZOL,1.5
same,FICI,Cryptococcus gattii [9]; KET:10-ZOL,0.5
same,FICI,Cryptococcus gattii [9]; VOR:10-ZOL,0.8
same,bisphosphonate MICc,Cryptococcus gattii [9]; with 5FC,0.25
same,bisphosphonate MICc,Cryptococcus gattii [9]; with AMB,0.125
same,bisphosphonate MICc,Cryptococcus gattii [9]; with CAS,0.125
same,bisphosphonate MICc,Cryptococcus gattii [9]; with FLC,0.5
same,bisphosphonate MICc,Cryptococcus gattii [9]; with ITR,0.125
same,bisphosphonate MICc,Cryptococcus gattii [9]; with KET,0.125
same,bisphosphonate MICc,Cryptococcus gattii [9]; with VOR,0.125
same,FICI,Cryptococcus tetragattii; CAS:10-ZOL,2.13
same,FICI,Cryptococcus tetragattii; KET:10-ZOL,0.5
same,FICI,Cryptococcus tetragattii; VOR:10-ZOL,1.48
same,bisphosphonate MICc,Cryptococcus tetragattii; with 5FC,0.5
same,bisphosphonate MICc,Cryptococcus tetragattii; with AMB,0.063
same,bisphosphonate MICc,Cryptococcus tetragattii; with CAS,1
same,bisphosphonate MICc,Cryptococcus tetragattii; with FLC,0.125
same,bisphosphonate MICc,Cryptococcus tetragattii; with ITR,0.125
same,bisphosphonate MICc,Cryptococcus tetragattii; with KET,0.125
same,bisphosphonate MICc,Cryptococcus tetragattii; with VOR,0.5
same,FICI,Fusarium oxysporum; 5FC:10-ZOL,≥4
same,FICI,Fusarium oxysporum; AMB:10-ZOL,1.03
same,FICI,Fusarium oxysporum; CAS:10-ZOL,≥4
same,FICI,Fusarium oxysporum; VOR:10-ZOL,0.5
same,bisphosphonate MICc,Fusarium oxysporum; with 5FC,4
same,bisphosphonate MICc,Fusarium oxysporum; with AMB,0.25
same,bisphosphonate MICc,Fusarium oxysporum; with CAS,1
same,bisphosphonate MICc,Fusarium oxysporum; with FLC,1
same,bisphosphonate MICc,Fusarium oxysporum; with ITR,1
same,bisphosphonate MICc,Fusarium oxysporum; with KET,1
same,bisphosphonate MICc,Fusarium oxysporum; with VOR,2
same,FICI,Fusarium solani; 5FC:10-ZOL,≥4
same,FICI,Fusarium solani; CAS:10-ZOL,2
same,FICI,Fusarium solani; VOR:10-ZOL,0.53
same,bisphosphonate MICc,Fusarium solani; with 5FC,1
same,bisphosphonate MICc,Fusarium solani; with AMB,0.25
same,bisphosphonate MICc,Fusarium solani; with CAS,4
same,bisphosphonate MICc,Fusarium solani; with FLC,0.5
same,bisphosphonate MICc,Fusarium solani; with ITR,0.5
same,bisphosphonate MICc,Fusarium solani; with KET,2
same,bisphosphonate MICc,Fusarium solani; with VOR,0.125
same,FICI,Scedosporium apiospermum [10]; 5FC:10-ZOL,2.25
same,FICI,Scedosporium apiospermum [10]; KET:10-ZOL,0.53
same,FICI,Scedosporium apiospermum [10]; VOR:10-ZOL,0.53
same,bisphosphonate MICc,Scedosporium apiospermum [10]; with 5FC,1
same,bisphosphonate MICc,Scedosporium apiospermum [10]; with AMB,2
same,bisphosphonate MICc,Scedosporium apiospermum [10]; with CAS,1
same,bisphosphonate MICc,Scedosporium apiospermum [10]; with FLC,1
same,bisphosphonate MICc,Scedosporium apiospermum [10]; with ITR,0.25
same,bisphosphonate MICc,Scedosporium apiospermum [10]; with KET,0.125
same,bisphosphonate MICc,Scedosporium apiospermum [10]; with VOR,0.125
same,FICI,Candida auris [11]; 5FC:10-ZOL,1.5
same,FICI,Candida auris [11]; FLC:10-ZOL,0.5
same,bisphosphonate MICc,Candida auris [11]; with 5FC,1
same,bisphosphonate MICc,Candida auris [11]; with AMB,0.25
same,bisphosphonate MICc,Candida auris [11]; with CAS,0.5
same,bisphosphonate MICc,Candida auris [11]; with FLC,0.5
same,bisphosphonate MICc,Candida auris [11]; with ITR,0.125
same,bisphosphonate MICc,Candida auris [11]; with KET,1
same,bisphosphonate MICc,Candida auris [11]; with VOR,1
same,FICI,Candida parapsilosis [12]; CAS:10-ZOL,0.5
same,bisphosphonate MICc,Candida parapsilosis [12]; with 5FC,1
same,bisphosphonate MICc,Candida parapsilosis [12]; with AMB,0.125
same,bisphosphonate MICc,Candida parapsilosis [12]; with CAS,0.25
same,bisphosphonate MICc,Candida parapsilosis [12]; with FLC,0.25
same,bisphosphonate MICc,Candida parapsilosis [12]; with ITR,0.125
same,bisphosphonate MICc,Candida parapsilosis [12]; with KET,0.25
same,bisphosphonate MICc,Candida parapsilosis [12]; with VOR,0.25
same,FICI,Aspergillus niger [13]; 5FC:10-ZOL,≥4
same,FICI,Aspergillus niger [13]; AMB:10-ZOL,2.17
same,FICI,Aspergillus niger [13]; CAS:10-ZOL,1
same,bisphosphonate MICc,Aspergillus niger [13]; with 5FC,1
same,bisphosphonate MICc,Aspergillus niger [13]; with AMB,1
same,bisphosphonate MICc,Aspergillus niger [13]; with CAS,2
same,bisphosphonate MICc,Aspergillus niger [13]; with FLC,0.5
same,bisphosphonate MICc,Aspergillus niger [13]; with ITR,1
same,bisphosphonate MICc,Aspergillus niger [13]; with KET,2
same,bisphosphonate MICc,Aspergillus niger [13]; with VOR,0.5
same,FICI,Aspergillus lentulus; 5FC:10-ZOL,≥4
same,FICI,Aspergillus lentulus; CAS:10-ZOL,2
same,FICI,Aspergillus lentulus; FLC:10-ZOL,1.02
same,bisphosphonate MICc,Aspergillus lentulus; with 5FC,1
